Assays:
MK-801 treated mice [1] = experiment: Prepulse inhibition in MK-801 treated mice (Example 9); format: in vivo, C57BL/6J male mice; conditions: MK-801 0.3 mg/kg i.p. alone
Protocol: Each mouse in Groups 2-4 received an acute administration of 0.3 mg/kg MK-801 (Sigma-Aldrich, USA) dissolved in normal saline by i.p. injection 20 minutes prior to the prepulse inhibitin test. Each mouse in Groups 3-4 received an acute oral administration of 50 or 200 mg/kg Enrichment #10 tannic acids dissolved in ddH2O by p.o. 20 minutes prior to the MK-801 administration.
Prepulse inhibition was used as an index of sensorimotor gating function using SR-LAB startle apparatus (San Diego Instruments, San Diego, Calif., USA). Under 65 dB background noise, each session was composed of 5 minutes accumulation period followed by 64 trials in four blocks. The pulse alone (PA) trial was a 40 ms, 120 dB white noise burst. In the prepulse (pp)+pulse trials, a 20 ms white noise prepulse stimuli of 71 dB (pp6), 75 dB (pp10), and 83 dB (pp18) were presented 100 ms before a 40 ms 120 dB pulse. The non-stimulus (NS) trials presented the background noise only. The initial and the last blocks were composed of six PA trials, respectively. Two middle blocks consisted of PA, pp+pulse, and NS trials. […] The percentage of prepulse inhibition was evaluated by the following formula: % PPI=100×[(PA score)−(pp−P score)]/(PA score), where the PA score was the average of the PA value in the middle blocks

MK-801 treated mice [2] = experiment: Sucrose preference (anhedonia) in MK-801 treated mice; format: in vivo, C57BL/6J male mice; conditions: MK-801 0.2 mg/kg i.p. alone
Protocol: (§1) Each mouse in Groups 2-5 received an acute administration of MK-801 (Sigma-Aldrich, USA) dissolved in normal saline, 0.1 mg/kg for open field and Barnes maze tasks, and 0.2 mg/kg for prepulse inhibition and sucrose preference tasks by i.p. injection) 20 minutes prior to the behavioral tests. Each mouse in Groups 3-6 received an acute oral administration of tannic acids (Merck Millipore, Germany; dissolved in PBS, 10, 30, or 100 mg/kg, p.o.) 20 minutes prior to the MK-801 administration.
Sucrose preference test has been commonly examined in mouse models of several mental illnesses, including, but not limited to, depression, major depression disorder, anhedonia, negative symptoms of schizophrenia, chronic mild and unpredictable stress (see Anderson et al., 2006; Carvalho et al., 2013; Briones et al., 2011; Der-Avakian and Markou, 2012; Tye et al., 2013; Edwards and Koob, 2012; Brigman et al., 2010; Koo and Duman, 2007; Nestler and Hyman, 2010; Overstreet, 2012; Papp et al., 1991; Santiago et al., 2010; Skalisz et al., 2002; Szczypka et al., 2001; Taylor et al., 2010; Vardigan et al., 2010; Willner et al., 1987; You et al., 2011).

MK-801 treated mice [3] = experiment: Open field locomotion in MK-801 treated mice (Examples 3, 4); format: in vivo, C57BL/6J male mice; conditions: MK-801 0.1 mg/kg i.p. alone
Protocol: (§2) Each mouse in Groups 2-6 received an acute administration of MK-801 (Sigma-Aldrich, USA) dissolved in normal saline, 0.1 mg/kg, i.p.) 20 minutes prior to the behavioral tests. Each mouse in Groups 3-6 received an acute administration of tannic acids (Sigma-Aldrich, USA; dissolved in PBS, 10, 15, 20 or 30 mg/kg, i.p.) 20 minutes prior to the MK-801 administration.
All mice in this study were tested with open field task and prepulse inhibition task with at least 1-week interval between two tasks. An additional cohort of mice was used to test the effect of different sources of tannic acid on prepulse inhibition.
as §1
In this test, tannic acids were administered orally 20 minutes before the MK-801 (0.1 mg/kg) injection.

MK-801 treated mice [4] = experiment: Open field locomotion in MK-801 treated mice (Example 9); format: in vivo, C57BL/6J male mice; conditions: MK-801 0.2 mg/kg i.p. alone
Protocol: Each mouse in Groups 2-5 received an acute administration of 0.2 mg/kg MK-801 (Sigma-Aldrich, USA) dissolved in normal saline by i.p. injection 20 minutes prior to the locomotion activity test. Each mouse in Groups 3-6 received an acute oral administration of 50 mg/kg tannic acids dissolved in ddH2O by p.o. 20 minutes prior to the MK-801 administration. Tannic acid purchased from Merch Millipore (Merck TA) and from Wufeng Chicheng Biotech (CCBiotech TA), and tannic acid from Enrichment method 10 (Enrichment #10) at 50 mg/kg were used in this study.
The open field task is a common measurement of novelty induced exploratory behavior and general activity in both mice and rats. In this study, the mice were placed in a PLEXIGLAS® cage (37.5 cm×21.5 cm×18 cm) under 50-65 lux light intensity. Their spontaneous locomotor activities were measured for 30 minutes using the SMART video tracking system (Panlab, Harvard Apparatus). The travel distance of each mouse was measured as an index of locomotion activity.

MK-801 treated mice [5] = experiment: Prepulse inhibition in MK-801 treated mice (Examples 3, 4); format: in vivo, C57BL/6J male mice; conditions: MK-801 0.2 mg/kg i.p. alone
Protocol: as §2
Prepulse inhibition was used as an index of sensorimotor gating function using SR-LAB startle apparatus (San Diego Instruments, San Diego, Calif., USA). Under 72 dB background noise, each session was composed of 5 minutes accumulation period followed by 64 trials in four blocks. The pulse alone (PA) trial was a 40 ms, 120 dB white noise burst. In the prepulse (pp)+pulse trials, a 20 ms white noise prepulse stimuli of 78 dB (pp6), 82 dB (pp10), and 90 dB (pp18) were presented 100 ms before a 40 ms 120 dB pulse. The non-stimulus (NS) trials presented the background noise only. The initial and the last blocks were composed of six PA trials, respectively. Two middle blocks consisted of PA, pp+pulse, and NS trials. […] The percentage of prepulse inhibition was evaluated by the following formula: % PPI=100×[(PA score)−(pp−P score)]/(PA score), where the PA score was the average of the PA value in the middle blocks. […]

[6] = biological target: D-amino acid oxidase (DAAO) (UniProt P14920)
Protocol: The activity of DAAO was determined in vitro by measuring the inhibition of the catabolism of known substrate, D-proline. The cofactor FAD (40 ? M) was added to the DAAO stock solution first. For the assay, potential inhibitors of tannic acid(s) were mixed with reaction mixture containing phosphate buffered saline (137 mM NaCl, 3 mM KCl, 10 mM Na2HPO4, 2 mM NaH2PO4, pH 7.4), horseradish peroxidase (5 U/ml), o-phenylendiamine (OPD, 0.03%), and 0.6 μg human-(or porcine-) DAAO, and incubated for about 5 min. After the pre-incubation period, 40 mM D-proline were added as substrate and the reaction continued for 10 min. OPD was oxidized to form 2,3-diaminophenazine (DAP) by horseradish peroxidase. The absorbance of DAP was measured at 453 nm by a spectrophotometry. Assay was done in serial dilutions of the inhibitors to generate IC50 and analyzed by Prism (Graphpad Software). In the analysis, the spectrophotometry readings were fit to a standard equation to determine the concentration of 50% inhibition (IC50). All enzymatic assays were conducted at room temperature in 96-well plate format.
The DAAO inhibitory activities of subgroups of tannic acids (having a particular number of galloyl moieties) were determined as follows.

SMILES	prepulse inhibition vs control group (MK-801 treated mice [1])	preference toward the sucrose solution (2%) (MK-801 treated mice [2])	locomotion activity vs control group (MK-801 treated mice [3]; Example 3)	locomotion (MK-801 treated mice [3]; Example 4)	locomotion activity vs control group (MK-801 treated mice [4])	prepulse inhibition vs control group (MK-801 treated mice [5])	IC50 ([6]; read-out: IC50 (μM), potency of individual tannic acids, Table 4)	Relative DAAO activity (%) ([6]; samples at 300 nM)
C[C@]12N[C@H](Cc3ccccc31)c1ccccc12 [MK-801]	induced robust prepulse inhibition deficits in all prepulse intensities	did not show the preference toward the sucrose solution	hyper-locomotion activity	induced hyper-locomotion	hyper-locomotion activity	induced robust prepulse inhibition deficits	–	–
O=C(OC[C@H]1OC(OC(=O)c2cc(O)c(O)c(OC(=O)c3cc(O)c(O)c(O)c3)c2)[C@H](OC(=O)c2cc(O)c(O)c(OC(=O)c3cc(O)c(O)c(O)c3)c2)[C@@H](OC(=O)c2cc(O)c(O)c(OC(=O)c3cc(O)c(O)c(O)c3)c2)[C@@H]1OC(=O)c1cc(O)c(O)c(OC(=O)c2cc(O)c(O)c(O)c2)c1)c1cc(O)c(O)c(OC(=O)c2cc(O)c(O)c(O)c2)c1 (some centres unmarked) [10G]	–	–	–	–	–	–	0.215 µM	19.25%

Source: patent publication US10105378B2, “Enrichment methods for preparing tannic acid compositions” (SyneuRx International (Taiwan) Corp., priority 2016, dated 2018)
